From US6541497B1, “Hypoglycemic and hypolipidemic compounds” (Eli Lilly and Company, priority 1996, dated 2003)

What was measured:
[1] = tested on: Male obese-diabetic viable yellow (A^vy) mice; test: Serum/blood glucose after 14 days of feeding compound admixed in chow; type: in vivo
Description: (§1) Male obese-diabetic viable yellow (A^vy) mice were divided into two groups of 6 each. One group was fed repelletized Purina 5008 Chow and the second group was fed a repelletized chow consisting of Purina 5008 Chow, admixed with varying doses of the candidate compound. Blood samples were taken before the experiment was initiated and 14 days after initiation. Body weight and food consumption were monitored. The blood glucose level after 14 days of treatment was measured and recorded as a percent of the initial value, compared to the untreated control (first) group. The results are presented in the table below and include the dose of the candidate compound as a weight percent of the amount incorporated into the diet. The positive control is a known hypoglycemic agent (J. Med. Chem. 35:2617, 1992) administered in the same way as a compound of the present invention.

[2] = tested on: Male obese-diabetic viable yellow (A^vy) mice; test: Serum/plasma triglycerides after 14 days in the same feeding study; type: in vivo; conditions: untreated about 4 mmol/mL
Description: as §1
In the same feeding study described above, plasma triglycerides were measured against a glycerol standard using reagents from Sigma Kit No. 339 (St. Louis, Mo.), adapted for assay on the Monarch System (Instrumentation Laboratory, Lexington, Mass.). Day 14 levels are recorded below as mM of triglycerides per mL. Serum triglyceride values for untreated animals averaged about 4 mmol/mL.

[3] = dose 0.03 (mg/100 g food) in diet
[4] = dose 0.01 (mg/100 g food) in diet

Compound | Serum Glucose after 14 days % of day 0 value [1, 3] | Serum Triglyceride after 14 days [2, 3] | melting point | other results
4-[2-(2-Phenyl-4-oxazolyl)ethoxy]benzyl-N-CBZ-L-serine [Example No. 7] | 34 % of day 0 value | 0.4 mM |  | 
Cc1oc(-c2ccccc2)nc1CCOc1ccc(CC(NC(=O)OCc2ccccc2)C(=O)O)cc1 (racemic) [Example No. 9, O-[2-(5-Methyl-2-phenyl-4-oxazolyl)ethyl]-N-CBZ-D,L-tyrosine] | 66 % of day 0 value | 2.5 mM | 142 to 143 °C | 
N[C@@H](Cc1ccc(OCCc2coc(-c3ccccc3)n2)cc1)C(=O)O [Example 3, O-[2-(2-Phenyl-4-oxazolyl)ethyl]-L-tyrosine] |  |  | 231 to 235 °C | 
N[C@@H](Cc1ccc(OCCc2coc(-c3ccccc3)n2)cc1)C(=O)N(O)C(=O)OCc1ccccc1 [Example 11, O-[2-(2-Phenyl-4-oxazolyl)ethyl]-N-CBZ-L-tyrosine hydroxamic acid] |  |  | 198 to 199 °C | 
O=C(COc1ccccc1)N[C@@H](Cc1ccc(OCCc2coc(-c3ccccc3)n2)cc1)C(=O)O [Example 12, O-[2-(2-Phenyl-4-oxazolyl)ethyl]-N-phenoxyacetyl-L-tyrosine] |  |  | 94 to 97 °C | 
O=C(N[C@@H](Cc1ccc(OCCc2coc(-c3ccccc3)n2)cc1)C(=O)O)c1ccc(Cl)cc1 [Example 13, O-[2-(2-Phenyl-4-oxazolyl)ethyl]-N-4-chlorobenzoyl-L-tyrosine] |  |  | 158 to 161 °C | 
O=C(O)[C@H](Cc1ccc(OCCc2coc(-c3ccccc3)n2)cc1)NS(=O)(=O)Cc1ccccc1 [Example 14, O-[2-(2-Phenyl-4-oxazolyl)ethyl]-N-phenylmethylsulfonyl-L-tyrosine] |  |  | 141 to 143 °C | 
O=C(N[C@@H](Cc1ccc(OCCc2cccc3ccccc23)cc1)C(=O)O)OCc1ccccc1 [Example 15, O-[2-(1-Naphthyl)ethyl]-N-CBZ-L-tyrosine] |  |  | 80 to 83 °C | 
O=C(N[C@@H](Cc1ccc(OCCc2coc(-c3ccccc3)n2)cc1)C(=O)O)OCc1ccc(Br)cc1 [Example 16, O-[2-(2-Phenyl-4-oxazolyl)ethyl]-N-(4-bromobenzyloxycarbonyl)-L-tyrosine] |  |  | 173 to 176 °C | 
O=C(N[C@@H](Cc1ccc(OCCc2coc(-c3ccccc3)n2)cc1)C(=O)O)OCc1ccc(C(F)(F)F)cc1 [Example 17, O-[2-(2-Phenyl-4-oxazolyl)ethyl]-N-(4-trifluoromethylbenzyloxycarbonyl)-L-Tyrosine] |  |  | 177 to 180.5 °C | 
COc1ccc(COC(=O)N[C@@H](Cc2ccc(OCCc3coc(-c4ccccc4)n3)cc2)C(=O)O)cc1 [Example 18, O-[2-(2-Phenyl-4-oxazolyl)ethyl]-N-(4-methoxybenzyloxycarbonyl)-L-tyrosine] |  |  | 132.5 to 135.5 °C | 
CCCCc1ccc(COC(=O)N[C@@H](Cc2ccc(OCCc3coc(-c4ccccc4)n3)cc2)C(=O)O)cc1 [Example 19, O-[2-(2-Phenyl-4-oxazolyl)ethyl]-N-(4-n-Butylbenzyloxycarbonyl)-L-tyrosine] |  |  | 86 to 89 °C | 
O=C(NCc1ccccc1)N[C@@H](Cc1ccc(OCCc2coc(-c3ccccc3)n2)cc1)C(=O)O [Example 20, O-[2-(2-Phenyl-4-oxazolyl)ethyl]-N-(N′-Benzylcarbamoyl)-L-tyrosine] |  |  | 196.5 to 198 °C | 
O=C(N[C@@H](Cc1ccc(OCCc2coc(-c3ccccc3)n2)cc1)C(=O)O)OCc1ccccc1 [Example No. 1, O-[2-(2-Phenyl-4-oxazolyl)ethyl]-N-CBZ-L-tyrosine] | 49 % of day 0 value | 1.3 mM | 105 to 111 °C | 
O=C(N[C@@H](Cc1ccc(OCCc2coc(-c3ccccc3)n2)cc1)C(=O)[O-])OCc1ccccc1.[Na+] [Example No. 2, O-[2-(2-Phenyl-4-oxazolyl)ethyl]-N-CBZ-L-tyrosine, sodium salt] | 67 % of day 0 value | 3.3 mM | 204 to 207 °C | 
O=C(N[C@@H](Cc1ccc(OCCc2coc(-c3ccccc3)n2)cc1)C(=O)O)c1ccccc1 [Example No. 4, O-[2-(2-Phenyl-4-oxazolyl)ethyl]-N-BZ-L-tyrosine] | 60 % of day 0 value | 1.5 mM |  | 
O=C(Cc1ccccc1)N[C@@H](Cc1ccc(OCCc2coc(-c3ccccc3)n2)cc1)C(=O)O [Example No. 5, O-[2-(2-Phenyl-4-oxazolyl)ethyl]-N-phenylacetyl-L-tyrosine] | 57 % of day 0 value |  | 146 to 151 °C | 
Cc1ccc(C(=O)N[C@@H](Cc2ccc(OCCc3coc(-c4ccccc4)n3)cc2)C(=O)O)cc1 [Example No. 6, O-[2-(2-Phenyl-4-oxazolyl)ethyl]-N-4-methylbenzoyl-L-tyrosine] | 65 % of day 0 value | 2.3 mM | 180 to 182 °C | 
CN(C(=O)OCc1ccccc1)[C@@H](Cc1ccc(OCCc2coc(-c3ccccc3)n2)cc1)C(=O)O [Example No. 8, O-[2-(2-Phenyl-4-oxazolyl)ethyl]-N-methyl-N-CBZ-L-tyrosine] |  | 3.6 mM |  | Serum Glucose after 14 days % of day 0 value ([1]; dose 0.06 (mg/100 g food) in diet): 75 % of day 0 value
NC(=O)[C@H](Cc1ccc(OCCc2coc(-c3ccccc3)n2)cc1)NC(=O)OCc1ccccc1 [Example No. 10, O-[2-(2-Phenyl-4-oxazolyl)ethyl]-N-CBZ-L-tyrosine carboxamide] | 88 % of day 0 value |  |  | 
O=C(NC(Cc1cccc(OCCc2coc(-c3ccccc3)n2)c1)C(=O)O)OCc1ccccc1 (stereo not drawn) [Example No. 21, α-(3-[2-(2-Phenyl-4-oxazolyl)ethoxy]benzyl)-N-CBZ glycine] | 48 % of day 0 value | 1.4 mM | 149 to 151 °C (dec.) | 
Cc1oc(-c2ccccc2)nc1CCOc1ccc(C[C@H](NC(=O)OCc2ccccc2)C(=O)O)cc1 [Example No. 22, O-[2-(5-Methyl-2-phenyl-4-oxazolyl)ethyl]-N-CBZ-L-tyrosine] | 53 % of day 0 value |  | 75 to 95 °C | 
O=C(N[C@@H](COCc1cccc(OCCc2coc(-c3ccccc3)n2)c1)C(=O)O)OCc1ccccc1 [Example No. 24, O-(3-(2-(2-Phenyl-4-oxazolyl)ethoxy]benzyl)-N-CBZ serine] |  |  | 55 to 57 °C | Serum Glucose after 14 days % of day 0 value [1, 4]: 88 % of day 0 value; Serum Triglyceride after 14 days [2, 4]: 0.3 mM
CC(C)(Oc1ccc(Cl)cc1)C(=O)O [clofibric acid, reference compound] |  |  |  | Serum Triglyceride after 14 days ([2]; dose 0.10 (mg/100 g food) in diet): 1.9 mM
